Test results from ChEMBL document CHEMBL4229572, “VU6007477, a Novel M1 PAM Based on a Pyrrolo[2,3-b]pyridine Carboxamide Core Devoid of Cholinergic Adverse Events” (ACS Med Chem Lett, 2018).

Key:
[1] = Drug level in C57BL/6J mouse brain at 100 mg/kg, ip measured after 1 hr; type: ADME, organism-based; details: read-out: Drug uptake
P-gp = experiment: Substrate activity at P-gp (unknown origin) assessed as efflux ratio of permeability; type: ADME; details: human, not told
[2] = target: T1, Muscarinic acetylcholine receptor M1 (Rattus norvegicus, UniProt P08482); experiment: Agonist activity at rat M1 receptor expressed in CHO cells assessed as increase in calcium mobilization measured after 2.5 mins by Fluo-4-AM dye based assay; type: functional, cell-based
T1 sequence (P08482 whole entry): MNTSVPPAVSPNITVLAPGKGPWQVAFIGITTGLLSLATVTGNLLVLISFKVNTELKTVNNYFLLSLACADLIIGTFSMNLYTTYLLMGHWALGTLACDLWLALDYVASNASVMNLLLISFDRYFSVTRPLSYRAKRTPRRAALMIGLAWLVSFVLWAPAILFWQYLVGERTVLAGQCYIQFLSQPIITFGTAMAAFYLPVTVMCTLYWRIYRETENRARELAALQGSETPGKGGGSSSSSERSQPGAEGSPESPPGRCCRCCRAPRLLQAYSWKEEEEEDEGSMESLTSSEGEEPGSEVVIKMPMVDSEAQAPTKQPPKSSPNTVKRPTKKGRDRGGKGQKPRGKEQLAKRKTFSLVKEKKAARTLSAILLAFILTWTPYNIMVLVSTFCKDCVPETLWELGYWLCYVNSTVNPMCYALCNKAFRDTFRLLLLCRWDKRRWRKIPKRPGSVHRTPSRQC

[3] = Protein binding in rat brain assessed as unbound fraction; type: ADME, tissue-based
[4] = Total brain to plasma partition coefficient, Kp in C57BL/6J mouse at 100 mg/kg, ip after 1 hr by LC-MS/MS analysis; type: ADME, organism-based; details: brain and plasma
[5] = target: T2, Muscarinic acetylcholine receptor M5 (Homo sapiens, UniProt P08912); experiment: Positive allosteric modulation of human M5 receptor expressed in CHO cells assessed as increase in acetylcholine-induced calcium mobilization pretreated for 2.5 mins followed by acetylcholine addition and measured after 1 min by Fluo-4-AM dye based assay; type: functional, cell-based
T2 sequence (P08912 whole entry): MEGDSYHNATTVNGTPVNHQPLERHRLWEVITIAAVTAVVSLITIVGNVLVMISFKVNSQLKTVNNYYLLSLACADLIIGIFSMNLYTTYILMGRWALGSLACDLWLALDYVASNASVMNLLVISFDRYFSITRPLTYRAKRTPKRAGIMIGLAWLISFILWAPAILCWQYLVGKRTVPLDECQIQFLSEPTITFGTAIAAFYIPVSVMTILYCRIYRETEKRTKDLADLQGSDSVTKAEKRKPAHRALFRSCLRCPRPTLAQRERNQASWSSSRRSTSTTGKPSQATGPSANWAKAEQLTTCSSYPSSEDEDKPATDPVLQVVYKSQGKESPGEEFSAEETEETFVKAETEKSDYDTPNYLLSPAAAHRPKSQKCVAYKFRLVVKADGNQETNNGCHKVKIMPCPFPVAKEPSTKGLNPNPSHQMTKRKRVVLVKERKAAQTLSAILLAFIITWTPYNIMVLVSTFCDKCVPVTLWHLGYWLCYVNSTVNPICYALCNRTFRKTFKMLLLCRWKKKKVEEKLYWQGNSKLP

[6] = Ratio of unbound brain to plasma concentration in cannulated Sprague-Dawley rat at 0.2 mg/kg, iv administered via jugular vein as cassette dose measured after 0.25 hrs by LC-MS/MS analysis; type: ADME, organism-based; details: Sprague-Dawley, brain and plasma, read-out: K(p,uu,brain)

concentration at 1 h [1]: 7 µM
efflux ratio (P-gp): 4.5
EC50 ([2]; cho, read-out: EC50): > 10 µM
EC50 ([2]; read-out: pEC50 (converted)): > 10 µM
fraction unbound [3]: 0.08
Kp at 1 h [4]: 0.16
EC50 [5]: > 30 µM
Kp uu at 0.25 h [6]: 0.32
SMILES: Cn1cc(-c2ccc(Cc3cc(C(=O)NC4CCOCC4)nc4c3ccn4C)cn2)cn1
